Measurements reported in US20240209061A1, “FUSION PROTEINS AND USES THEREOF” (Pfizer Inc., priority 2020, published 2024).
One block for each substance: values may come before it.

Key:
recombinant soluble CD28 = molecular target: T1, recombinant soluble CD28 (Homo sapiens, UniProt P10747); experiment: ELISA binding to recombinant soluble CD28; conditions: standard ELISA, FIG. 2A
T1 construct: Recombinant soluble CD28 and CTLA-4 proteins (from Creative BioMart, Product #CD28-3910H, CTLA-4-2232H) were immobilized; purchased Creative BioMart CD28-3910H
Procedure: Binding affinity of purified CD80-Fc fusion proteins (WT and variant) to recombinant soluble CD28 and CTLA-4 proteins was determined by standard ELISA. Recombinant soluble CD28 and CTLA-4 proteins (from Creative BioMart, Product #CD28-3910H, CTLA-4-2232H) were immobilized on 96 well microtiter plate (Thermo Scientific, Product #436110) in bicarbonate buffer at 4° C. overnight. After washing with 1×PBS containing 0.05% Tween 20 (wash buffer) plates were incubated with blocking buffer, 5% BSA in PBS, for 1 hour at room temperature. A serial dilution of CD80-Fc fusion proteins and human IgG1 isotype control antibody was prepared in blocking buffer, added into the plate and incubated at room temperature for 1 hour. Following washing 3× with wash buffer, 1:4000 dilution of HRP conjugated secondary anti-human IgG1 antibody (R&D Systems, MAB110-100) was added into the plate and incubated at room temperature for 1 hour. Plates were washed 3× with wash buffer and a 100 μl of LumiGlo (SeraCare, Product #5430-0040) reagent added into each well, incubated for 5 minutes at room temperature before reading luminescence signal in EnSight™ plate reader (PerkinElmer).

[1] = system: NY-ESO1-TCR+ Jurkat reporter cells; experiment: Jurkat-NYESO1-IL-2-Luc and A375-CD64 co-stimulation assay; type: cell-based, human
Source text: Jurkat-IL-2-Luc reporter cells (Promega, Product #J1631) were engineered with T cell receptor, TCR (Wargo J. Cancer Immunol Immunother 2009; Zhao Y. J Immunol 2005, Li Y, Nat Biotechnol 2005) against HLA-A2 restricted NY-ESO1 (SLLMWITQC-SEQ ID NO: 19) epitope using lentiviral transduction system. Human melanoma cells A375, which express human HLA-A*0201, were transduced with lentiviral vector containing endogenous codon for NY-ESO1 gene (Refseq accession NM_001327.2, CCDS14758.1). Upon expression, the construct underwent proteolytic cleavage at the ubiquitin/epitope junction, thus generating free, cytoplasmic epitope, which can be translocated into the endoplasmic reticulum and loaded onto class I HLA. A375-NY-ESO1 positive cells were treated with IFNγ to induce HLA expression and NY-ESO1 antigen presentation. The HLA expression and the antigen presentation was confirmed by Western Blot. The NY-ESO1^+-A375 cells were further engineered to express human FCγRI (CD64, GenBank:AAA58414.1, RefSeq:P12314.1) for cell surface assembly and displaying of CD80-Fc fusion proteins. The expression of FCγRI was confirmed by flow cytometry analysis.
A 96 well culture plate was seeded with NY-ESO1^+-A375 cells or NY-ESO1^+/FCγRI^+-A375 at 40,000 cells per well in 100 µL growth media (RPMI, 10% Heat Inactivated FBS, 200 μg/mL Hygromycin B, 1 mM sodium pyruvate, 0.1 mM MEM NEAA, 1 μg/mL puromycin) containing 10 ng/ml of human IFNγ (R&D Systems, product #285-IF) to induce MHC-A2 expression and grown overnight at 37° C. in CO2 incubator. To each well, NY-ESO1-TCR^+ Jurkat reporter cells, 100,000 (in 20 μL media), were added. 20 μL of serial dilutions of variant CD80-Fc fusion proteins with concentrations ranging from 0-1000 ng/ml (final concentrations per well) was added with appropriate controls. Assay plates were incubated for 6 hours at 37° C. in CO2 incubator. Following equilibration, 80 μL BioGlo luminescence reagent (BioGlo Luciferase assay kit, Promega, G7940) was added into each well. Plates were incubated for 5 minutes before reading luminescence on the EnSight™ plate reader (PerkinElmer).

[2] = system: MC38 murine colorectal carcinoma cells; experiment: MC38 murine colorectal carcinoma model, IV and SC dosing; type: in vivo, mouse; conditions: for CD8^+ T cell infiltrates (% CD45): MC38, n=4
Procedure: MC38 murine colorectal carcinoma cells (5×10^5) were subcutaneously implanted in the hind flank of female […] mice. When tumors reach ˜50 mm^3 (day 6 after implantation), mice were randomized. PBS vehicle control or variant CD80-Fc fusion proteins were dosed intravenously (IV) or subcutaneously (SC) with doses ranging from 0.01-3.0 mg/kg on Days 0 and 3. Tumor volume was determined by caliper measurements obtained in 2 dimensions and calculated as width^2×length/2. Error bars are depicted as ±SEM.
Cytotoxic CD8^+ T cells are responsible for killing cancer cells and the measurement of CD8^+ T cells that have infiltrated tumors commonly correlates with efficacy for immune-oncology therapies. For all in vivo studies, tumors were collected ˜1 week after the first dose and dissociated by mincing, followed by incubation in an enzymatic digestion cocktail and homogenization. The resulting cell suspension was filtered and washed, and single cells were stained with antibodies to CD45, CD8, and a viability dye to detect tumor-infiltrating lymphocytes (TILs) by flow cytometry. Data were acquired on a BD LSRFortessa flow cytometer or a Cytek Aurora spectral flow cytometer. Table 31 and FIG. 18 show the amount of tumor-infiltrating CD8+ T cells expressed as a percentage of total immune cells (CD45+). Each value is the average of n=4 mice per group. Treatment with all variant CD80-Fc fusion proteins led to increase in CD8+ TILs in various tumor models.

binding affinity to CD28 compared to WT CD80-Fc (recombinant soluble CD28): increased binding affinity to CD28
Substance: CD80-D90Q-Fc: variant CD80 ECD (D90Q) fused to human IgG1 Fc
enhanced co-stimulation compared to CD80-WT-Fc [1]: about 4 fold

Substance: CD80-K89D-D90K-T28V-T57V-Fc: non-cysteine stabilized variant CD80-Fc fusion protein (K89D, D90K, T28V, T57V)
% tumor growth inhibition ([2]; Day 15, Intravenous 0.01 mg/kg): 17.9%
% tumor growth inhibition ([2]; Day 15, Intravenous 0.1 mg/kg): 25.2%
% tumor growth inhibition ([2]; Day 15, Intravenous 1 mg/kg): 59.9%
% tumor growth inhibition ([2]; Day 15, Intravenous 3 mg/kg): 83.8%
% tumor growth inhibition ([2]; Day 15, Subcutaneous 0.01 mg/kg): 11.1%
% tumor growth inhibition ([2]; Day 15, Subcutaneous 0.1 mg/kg): 27.1%
% tumor growth inhibition ([2]; Day 15, Subcutaneous 1 mg/kg): 73.7%
% tumor growth inhibition ([2]; Day 15, Subcutaneous 3 mg/kg): 84.4%
Day 15 tumor volume ([2]; Intravenous 0.01 mg/kg): 1042.1 mm^3
Day 15 tumor volume ([2]; Intravenous 0.1 mg/kg): 954.8 mm^3
Day 15 tumor volume ([2]; Intravenous 1 mg/kg): 535.3 mm^3
Day 15 tumor volume ([2]; Intravenous 3 mg/kg): 248.1 mm^3
CD8^+ T cell infiltrates (% CD45) ([2]; 0.01 mg/kg): 6.26 % CD45
CD8^+ T cell infiltrates (% CD45) ([2]; 0.1 mg/kg): 10.81 % CD45
CD8^+ T cell infiltrates (% CD45) ([2]; 1 mg/kg): 23.58 % CD45
Day 15 tumor volume ([2]; Subcutaneous 0.01 mg/kg): 1125.4 mm^3
Day 15 tumor volume ([2]; Subcutaneous 0.1 mg/kg): 931.7 mm^3
Day 15 tumor volume ([2]; Subcutaneous 1 mg/kg): 369.7 mm^3
Day 15 tumor volume ([2]; Subcutaneous 3 mg/kg): 240.9 mm^3

Substance: CD80-K89Q-D90Q-E23C-A26C-Fc: disulfide stabilized variant CD80-Fc fusion protein (K89Q, D90Q, E23C, A26C)
% tumor growth inhibition ([2]; Day 16, Intravenous 0.01 mg/kg): 31.2%
% tumor growth inhibition ([2]; Day 16, Intravenous 0.1 mg/kg): 37.7%
% tumor growth inhibition ([2]; Day 16, Intravenous 1 mg/kg): 64.2%
% tumor growth inhibition ([2]; Day 16, Intravenous 3 mg/kg): 93.0%
% tumor growth inhibition ([2]; Day 16, Subcutaneous 1.5 mg/kg): 64.2%
% tumor growth inhibition ([2]; Day 16, Subcutaneous 3 mg/kg): 83.7%
Day 16 tumor volume ([2]; Intravenous 0.01 mg/kg): 905.1 mm^3
Day 16 tumor volume ([2]; Intravenous 0.1 mg/kg): 824.7 mm^3
Day 16 tumor volume ([2]; Intravenous 1 mg/kg): 495.3 mm^3
Day 16 tumor volume ([2]; Intravenous 3 mg/kg): 138.9 mm^3
CD8^+ T cell infiltrates (% CD45) ([2]; 0.01 mg/kg): 9.8 % CD45
CD8^+ T cell infiltrates (% CD45) ([2]; 0.1 mg/kg): 24.5 % CD45
CD8^+ T cell infiltrates (% CD45) ([2]; 1 mg/kg): 24.6 % CD45
CD8^+ T cell infiltrates (% CD45) ([2]; 3 mg/kg): 41.3 % CD45
Day 16 tumor volume ([2]; Subcutaneous 1.5 mg/kg): 495.6 mm^3
Day 16 tumor volume ([2]; Subcutaneous 3 mg/kg): 252.2 mm^3

binding affinity to CD28 compared to WT CD80-Fc (recombinant soluble CD28): increased binding affinity to CD28
Substance: CD80-K89Q-D90Q-Fc: variant CD80 ECD (K89Q, D90Q) fused to human IgG1 Fc
enhanced co-stimulation compared to CD80-WT-Fc [1]: about 4 fold
